Assay results published in patent US20100041089A1, “IMPROVED METHOD FOR DETECTING CHEMICAL […]” (priority 2006, published 2010).

System: yeast genes (expressed mRNA)
Assay: DNA chip measurement of expressed mRNA of yeast genes after culture with a toxic chemical substance
Assay type: cell-based, Saccharomyces cerevisiae S288C
Procedure, shortened: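 Fluorescence ratio, treated over untreated, read by chip scanner; ratio of two or more counted significant. Cells: S288C yeast, YPD, 25° C, chemical added at log phase for 2 h at growth-inhibiting, sublethal level. Cy3/Cy5-labeled cDNA from oligo-dT-purified mRNA.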

CN(C)C(=S)SSC(=S)N(C)C [(10), Tetramethylthiuram disulfide]
The level of expressed mRNA in the presence of chemical substance/The level of expressed mRNA in the absence of chemical substance (yeast gene YNL077W): 5.1 | The level of expressed mRNA in the presence of chemical substance/The level of expressed mRNA in the absence of chemical substance (yeast gene YNL092W, cultured two hours with substance): 1.5 | The level of expressed mRNA in the presence of chemical substance/The level of expressed mRNA in the absence of chemical substance (yeast gene YNL115C, cultured two hours with substance): 1.9 | The level of expressed mRNA in the presence of chemical substance/The level of expressed mRNA in the absence of chemical substance (yeast gene YNL156C, cultured two hours with substance): 1.9 | The level of expressed mRNA in the presence of chemical substance/The level of expressed mRNA in the absence of chemical substance (yeast gene YNL190W, cultured two hours with substance): 1.1 | The level of expressed mRNA in the presence of chemical substance/The level of expressed mRNA in the absence of chemical substance (yeast gene YNL195C, cultured two hours with the chemical substance): 11.7 | The level of expressed mRNA in the presence of chemical substance/The level of expressed mRNA in the absence of chemical substance (yeast gene YNL208W, cultured two hours with substance): 3.1 | The level of expressed mRNA in the presence of chemical substance/The level of expressed mRNA in the absence of chemical substance (yeast gene YNL234W, cultured two hours with substance): 3.3 | The level of expressed mRNA in the presence of chemical substance/The level of expressed mRNA in the absence of chemical substance (yeast gene YNL277W): 10.9 | The level of expressed mRNA in the presence of chemical substance/The level of expressed mRNA in the absence of chemical substance (yeast gene YNL281W, cultured two hours with substance): 1.6 | The level of expressed mRNA in the presence of chemical substance/The level of expressed mRNA in the absence of chemical substance (yeast gene YNL300W, cultured two hours with substance): 0.2 | The level of expressed mRNA in the presence of chemical substance/The level of expressed mRNA in the absence of chemical substance (yeast gene YNL305C, cultured two hours with substance): 2.1 | The level of expressed mRNA in the presence of chemical substance/The level of expressed mRNA in the absence of chemical substance (yeast gene YNL331C): 36.3 | The level of expressed mRNA in the presence of chemical substance/The level of expressed mRNA in the absence of chemical substance (yeast gene YNL331C, cultured for two hours with substance): 36.3 | The level of expressed mRNA in the presence of chemical substance/The level of expressed mRNA in the absence of chemical substance (yeast gene YNR064C, cultured two hours with substance): 2.1 | The level of expressed mRNA in the presence of chemical substance/The level of expressed mRNA in the absence of chemical substance (yeast gene YNR068C, cultured two hours with substance): 14.4 | The level of expressed mRNA in the presence of chemical substance/The level of expressed mRNA in the absence of chemical substance (yeast gene YNR073C): 16.8 | The level of expressed mRNA in the presence of chemical substance/The level of expressed mRNA in the absence of chemical substance (yeast gene YOL002C, cultured two hours with the substance): 0.3 | The level of expressed mRNA in the presence of chemical substance/The level of expressed mRNA in the absence of chemical substance (yeast gene YOL032W, cultured two hours with substance): 3.0 | The level of expressed mRNA in the presence of chemical substance/The level of expressed mRNA in the absence of chemical substance (yeast gene YOL036W, cultured two hours with substance): 2.8 | The level of expressed mRNA in the presence of chemical substance/The level of expressed mRNA in the absence of chemical substance (yeast gene YOL047C, cultured two hours with substance): 2.3 | The level of expressed mRNA in the presence of chemical substance/The level of expressed mRNA in the absence of chemical substance (yeast gene YOL058W): 15.7 | The level of expressed mRNA in the presence of chemical substance/The level of expressed mRNA in the absence of chemical substance (yeast gene YOL071W, cultured two hours with substance): 2.3 | The level of expressed mRNA in the presence of chemical substance/The level of expressed mRNA in the absence of chemical substance (yeast gene YOL082W, cultured two hours with substance): 2.0 | The level of expressed mRNA in the presence of chemical substance/The level of expressed mRNA in the absence of chemical substance (yeast gene YOL083W, cultured two hours with substance): 2.3 | The level of expressed mRNA in the presence of chemical substance/The level of expressed mRNA in the absence of chemical substance (yeast gene YOL101C, cultured two hours with substance): 0.3 | The level of expressed mRNA in the presence of chemical substance/The level of expressed mRNA in the absence of chemical substance (yeast gene YOL117W, cultured two hours with substance): 4.1 | The level of expressed mRNA in the presence of chemical substance/The level of expressed mRNA in the absence of chemical substance (yeast gene YOL131W, cultured two hours with substance): 8.1 | The level of expressed mRNA in the presence of chemical substance/The level of expressed mRNA in the absence of chemical substance (yeast gene YOL150C, cultured two hours with substance): 8.3 | The level of expressed mRNA in the presence of chemical substance/The level of expressed mRNA in the absence of chemical substance (yeast gene YOL162W, cultured two hours with substance): 6.8 | The level of expressed mRNA in the presence of chemical substance/The level of expressed mRNA in the absence of chemical substance (yeast gene YOL163W (transport facilitation protein gene)): 6.2 | The level of expressed mRNA in the presence of chemical substance/The level of expressed mRNA in the absence of chemical substance (yeast gene YOL165C): 23.3 | The level of expressed mRNA in the presence of chemical substance/The level of expressed mRNA in the absence of chemical substance (yeast gene YOL165C, cultured for two hours with substance): 23.3 | The level of expressed mRNA in the presence of chemical substance/The level of expressed mRNA in the absence of chemical substance (yeast gene YOR019W, cultured two hours with substance): 7.1 | The level of expressed mRNA in the presence of chemical substance/The level of expressed mRNA in the absence of chemical substance (yeast gene YOR197W, cultured two hours with substance): 0.7 | The level of expressed mRNA in the presence of chemical substance/The level of expressed mRNA in the absence of chemical substance (yeast gene YOR248W, cultured two hours with substance): 0.4 | The level of expressed mRNA in the presence of chemical substance/The level of expressed mRNA in the absence of chemical substance (yeast gene YOR382W, cultured two hours with substance): 12.8 | The level of expressed mRNA in the presence of chemical substance/The level of expressed mRNA in the absence of chemical substance (yeast gene YOR383C): 4.5 | The level of expressed mRNA in the presence of chemical substance/The level of expressed mRNA in the absence of chemical substance (yeast gene YOR391C, cultured two hours with substance): 18.1 | The level of expressed mRNA in the presence of chemical substance/The level of expressed mRNA in the absence of chemical substance (yeast gene YPL017C, metabolism protein genes): 6.7 | The level of expressed mRNA in the presence of chemical substance/The level of expressed mRNA in the absence of chemical substance (yeast gene YPL052W, cultured two hours with substance): 4.8 | The level of expressed mRNA in the presence of chemical substance/The level of expressed mRNA in the absence of chemical substance (yeast gene YPL087W, cultured two hours with substance): 2.2 | The level of expressed mRNA in the presence of chemical substance/The level of expressed mRNA in the absence of chemical substance (yeast gene YPL171C, cultured for two hours with substance): 50.6 | The level of expressed mRNA in the presence of chemical substance/The level of expressed mRNA in the absence of chemical substance (yeast gene YPL196W, cultured two hours with substance): 2.8 | The level of expressed mRNA in the presence of chemical substance/The level of expressed mRNA in the absence of chemical substance (yeast gene YPL206C, cultured two hours with substance): 1.1 | The level of expressed mRNA in the presence of chemical substance/The level of expressed mRNA in the absence of chemical substance (yeast gene YPL222W, cultured two hours with substance): 3.4 | The level of expressed mRNA in the presence of chemical substance/The level of expressed mRNA in the absence of chemical substance (yeast gene YPL223C (stress protein genes)): 16.5 | The level of expressed mRNA in the presence of chemical substance/The level of expressed mRNA in the absence of chemical substance (yeast gene YPR023C, cultured two hours with substance): 2.8 | The level of expressed mRNA in the presence of chemical substance/The level of expressed mRNA in the absence of chemical substance (yeast gene YPR079W, cultured two hours with substance): 2.8 | The level of expressed mRNA in the presence of chemical substance/The level of expressed mRNA in the absence of chemical substance (yeast gene YPR151C, cultured two hours with substance): 9.5
